Some results are limits rather than exact numbers.

Experiment [1] has as its target T1, IMP-1 (Serratia marcescens, UniProt P52699).
T1 construct: made in house; host or cells: E. coli BL21(DE3) derivative, pET-9a
Kind of experiment: MBL inhibition, reporter substrate method, IMP-1. In kind it is biochemical. The conditions noted are these: read-out: Inhibition of IMP-1 (dash in Ki column). How it is done: Compounds were prepared in DMSO at a final concentration of 50 mM prior to dilution in the assay buffer. The reaction rate was measured as the variation of absorbance observed upon substrate hydrolysis in a UV-Vis spectrophotometer or microplate reader at a wavelength of 300 nm (imipenem, meropenem), 260 nm (cefotaxime), or 482 nm (nitrocefin) and in the presence of a purified MBL enzyme (such as VIM-1, VIM-2, VIM-4, NDM-1, and IMP-1, at a final concentration ranging from 1 to 70 nM).
These enzymes were overproduced in derivatives of E. coli BL21(DE3) carrying a pET-9 a (IMP-1, VIM-1, VIM-2, and VIM-4) or pET-15 b (NDM-1) vector into which the metallo-β-lactamase-encoding open reading frame was cloned. Bacterial strains were grown in the auto-inducing medium, ZYP-5052, supplemented with 50 μg/mL kanamycin for 24 h at 37 °C [38]. IMP-1, VIM-1, VIM-2, and VIM-4 were purified by ion-exchange and gel filtration chromatography using an AKTA Purifier platform (GE Healthcare, Uppsala, Sweden) as previously described. NDM-1 (residues 37-270) was produced as an amino-terminal 6 xHis-tag fusion protein and was purified using affinity chromatography. After growth for 26 h at 25 °C, bacterial cells were harvested by centrifugation (10,000× g, 30 min, 4 °C), resuspended in 10 mM HEPES buffer (pH 7.5) containing 0.15 M NaCl (buffer A) in one-fifth of the original culture volume, and lysed by sonication. Cellular debris was removed by centrifugation (12,000× g, 40 min, 4 °C). The clarified sample was loaded on a HisTrap HP column (bed volume, 5 mL; GE Healthcare), followed by a wash step (25 mL) with buffer A containing 20 mM imidazole. Proteins were eluted using buffer A containing 350 mM imidazole. The resulting protein sample was desalted (HiPrep 26/10 Desalting column, GE Healthcare) using 20 mM triethanolamine (pH 7.2) supplemented with 50 μM ZnSO4 and concentrated using an Amicon Ultra-15 (MW cut-off, 10 kDa; Millipore, Burlington, MA, USA). The concentrated sample was loaded on a Superdex 75 prep grade column (XK16/100 column; bed volume, 140 mL; GE Healthcare) and the proteins eluted with buffer A containing 50 μM ZnSO4. The active fractions were pooled and stored at −20 °C. The purity of the protein preparations was estimated >95% by SDS-PAGE analysis. The authenticity of the enzyme preparations was confirmed by electron spray ionization mass spectrometry, as previously described.
The inhibition constants (Ki) were determined on the basis of a model of competitive inhibition by analyzing the dependence of the ratio v0/vi (v0, hydrolysis velocity in the absence of inhibitor; vi, hydrolysis velocity in the presence of inhibitor) as a function of [I] as already described. The slope of the plot of v0/vi vs. [I], which corresponds to Km^S/(Km^S + [S])Ki (where Km^S is the Km value of the reporter substrate and [S] its concentration in the reaction mixture) and allowed the calculation of the Ki value. Alternatively, a Dixon plot analysis was carried out by measuring the initial hydrolysis rates in the presence of variable concentrations of inhibitor and substrate. This allowed Ki values to be determined and supported the hypothesis that the various compounds behaved as competitive inhibitors of the various tested enzymes. The assays were performed in triplicate.

The target in experiment [2] is T2, CphA (Aeromonas hydrophila, UniProt P26918).
T2 construct: made in house
T2 sequence (P26918 28-254): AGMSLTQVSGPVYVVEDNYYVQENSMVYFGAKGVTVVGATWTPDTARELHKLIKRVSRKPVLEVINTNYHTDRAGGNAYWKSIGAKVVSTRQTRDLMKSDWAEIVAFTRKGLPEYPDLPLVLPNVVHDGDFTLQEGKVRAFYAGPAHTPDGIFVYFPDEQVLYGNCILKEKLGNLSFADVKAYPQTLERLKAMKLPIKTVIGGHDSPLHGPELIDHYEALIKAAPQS
As to the kind of experiment: MBL inhibition, CphA (imipenem hydrolysis). In kind it is biochemical. The settings on record: read-out: Percentage of Inhibition at 100 μM Inhibitor, CphA. How it is done: Compounds were prepared as 10 mM solutions in DMSO before dilution with appropriate buffers. Buffers were 25 mM Hepes pH 7.5 for CphA or 25 mM Hepes pH 7.5, 50 µM ZnCl2 for L1. The rates in the absence of inhibitor were not modified by addition of 1% DMSO. CphA and L1 enzymes, purified as previously described, were used at concentrations between 0.2 and 0.8 nM, respectively. The enzyme and the inhibitor (100 µM) were pre-incubated for 30 min in a volume of 495 µL at room temperature. The hydrolysis of a solution of 100 µM imipenem for CphA was monitored by following the absorbance variation at 300 nm using a Specord 50 PLUS spectrophotometer (Analytik Jena, Jena, Germany). For L1, the reporter substrate was nitrocefin (100 µM). The enzyme activity was measured by following the absorbance variation at 482 nm. The substrate hydrolysis was done at 30 °C. The activity was tested by measuring the initial rates in three samples without inhibitor that allowed to determine the percentage of residual β-lactamase activity in the presence of inhibitors. […] The Hanes linearization of the Henri–Michaelis equation was used, and Ki was calculated on the basis of the following equation, v = (Vmax.S)/[S + Km(1 + I/Ki)]. […]

In experiment [3] the target is T3, VIM-2 (Escherichia coli, UniProt Q5U7L7).
T3 construct: made in house; host or cells: E. coli BL21(DE3) derivative, pET-9a
As to the kind of experiment: Isothermal titration calorimetry of binding to VIM-2. How it is done:
ITC titrations were performed on a MicroCal ITC200 (GE-Malvern) equipped with a 200 µL Hastelloy sample cell and an automated 40 µL glass syringe rotating at 1000 rpm. VIM-2 in 10 mM Hepes-NaOH, 0.15 M NaCl, 50 µM ZnSO4, pH 7.5 was diluted to the desired concentration with the same buffer and was brought to a DMSO concentration identical to that of the injected compound. The tested compound was solubilized in DMSO at 20 mM concentration and was diluted to 200 µM with the enzyme buffer, resulting in a final DMSO concentration of 1%.
In a standard experiment, VIM-2 (19 µM) was titrated by one initiating injection (0.5 µL) followed by 19 injections (2 µL) of compound (200 µM) at an interval of 150 s. Dilution heat of compound injections into buffer, at the corresponding DMSO concentration, were subtracted from raw data. The data so obtained were fitted via nonlinear least squares minimization method to determine binding stoichiometry (n), association constant (Ka), and change in enthalpy of binding (∆H°b) using ORIGIN 7 software v.7 (OriginLab, Northampton, MA, USA). In the fitting procedure, the compound concentration was lowered in order to provide n around 1 and to take compound solubility into account under ITC conditions. The Gibbs free energy of binding, ∆G°b, was calculated from Ka (∆G°b = −RT ln Ka) and the entropic term, T∆S°b, was derived from the Gibbs–Helmholtz equation using the experimental ∆H°b value (∆G°b = ∆H°b − T∆S°b).
(In general: ITC needs no label: the signal is the heat of the interaction.)

T1 sequence (P52699 19-246 limits assumed): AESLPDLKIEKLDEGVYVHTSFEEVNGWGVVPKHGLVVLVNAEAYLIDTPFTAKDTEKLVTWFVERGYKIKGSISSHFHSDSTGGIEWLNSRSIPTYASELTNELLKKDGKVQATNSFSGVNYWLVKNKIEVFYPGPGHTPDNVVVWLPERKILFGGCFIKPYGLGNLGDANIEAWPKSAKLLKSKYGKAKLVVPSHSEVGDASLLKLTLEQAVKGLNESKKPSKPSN

The term inhibition denotes the relative decrease from the control value, in per cent. A word on the Kd: it is the constant that tells how readily two partners part at equilibrium. Turning to `O=C(O)c1ccccc1CNn1c(-c2ccccc2)n[nH]c1=S` [Compound 1], the inhibition at 100 µM in experiment [1] is less than 40%. Also, in experiment [2], the inhibition at 100 µM stood at 60%. In addition, the Kd in experiment [3] was 358 nM. For the same molecule, in experiment [3] (25 °C), the Ka came out at 2.8 ± 0.4 µM⁻¹; the “n, stoichiometry of binding” value turned out to be 1.01 ± 0.01; the “∆H°b” value was -6.3 ± 0.1 kcal/mol. In addition, the “∆G°b” value in experiment [3] (25 °C, calculated from Ka) was -8.8 kcal/mol. The “T∆S°b” value in experiment [3] (25 °C, from Gibbs–Helmholtz equation) is 2.5 kcal/mol.

Source of the values: PMC7465886, “4-(N-Alkyl- and -Acyl-amino)-1,2,4-triazole-3-thione Analogs as Metallo-β-Lactamase Inhibitors: Impact of 4-Linker on Potency and Spectrum of Inhibition” (Biomolecules, 2020).
